Values of other authors in US9974767B2, “Statins in the treatment of muscular dystrophies and myopathies” (University of Washington, priority 2014, dated 2018).

Conditions: food intake; cited from earlier work

Question: Which “absorption when consumed with food” value does the source give for `COCc1c(C(C)C)nc(C(C)C)c(/C=C/[C@@H](O)C[C@@H](O)CC(=O)O)c1-c1ccc(F)cc1` [cerivastatin] here?
Answer: Its value is “not affected”.

Question: With `CC(C)n1c(/C=C/C(O)CC(O)CC(=O)O)c(-c2ccc(F)cc2)c2ccccc21` (centres unmarked) [fluvastatin] as the molecule, how does the “absorption when consumed with food” value read?
Answer: The value was “reduced absorption”.

Question: With `CC[C@H](C)C(=O)O[C@H]1C[C@@H](C)C=C2C=C[C@H](C)[C@H](CC[C@@H]3C[C@@H](O)CC(=O)O3)[C@H]21` [lovastatin] as the molecule, how does the “absorption when consumed with food” value read?
Answer: Its value is “more efficiently absorbed”.

Question: For `CC[C@H](C)C(=O)O[C@H]1C[C@H](O)C=C2C=C[C@H](C)[C@H](CC[C@@H](O)C[C@@H](O)CC(=O)O)[C@H]21` [pravastatin], which “absorption when consumed with food” value is on record?
Answer: Its value is “reduced absorption”.

Question: With `CC(C)c1nc(N(C)S(C)(=O)=O)nc(-c2ccc(F)cc2)c1/C=C/[C@@H](O)C[C@@H](O)CC(=O)O` [rosuvastatin] as the molecule, how does the “absorption when consumed with food” value read?
Answer: The value was “not affected”.
